Measured values from the NIST ThermoML archive (doi:10.1021/je060170c).

Experiment: xn = mol fraction of the nth substance listed
Settings: 101 kPa, Liquid; for viscosity: Anton Paar Stabinger viscometer

COc1ccccc1 [anisole] + Cc1ccccc1
Settings	mass density [kg/m3]	speed of sound [m/s]	viscosity [mPa·s]
288.15 K, x1 = 0.1152	886.478	1360.7	0.676
288.15 K, x1 = 0.2132	899.203	1369.9	0.725
288.15 K, x1 = 0.3098	911.684	1379.1	0.77
288.15 K, x1 = 0.4182	925.577	1389.6	0.832
288.15 K, x1 = 0.5267	939.392	1400.4	0.891
288.15 K, x1 = 0.6209	951.306	1410	0.94
288.15 K, x1 = 0.7382	966.034	1421.9	1.014
288.15 K, x1 = 0.8645	981.766	1434.9	1.094
288.15 K, x1 = 0.927	989.474	1441.5	1.138
288.15 K, x1 = 1	998.441	1449.1	1.188
293.15 K, x1 = 0.1152	881.927	1339.1	0.628
293.15 K, x1 = 0.2132	894.629	1347.9	0.671
293.15 K, x1 = 0.3098	907.078	1357.9	0.71
293.15 K, x1 = 0.4182	920.94	1367.2	0.765
293.15 K, x1 = 0.5267	934.732	1377.6	0.818
293.15 K, x1 = 0.6209	946.626	1387.6	0.861
293.15 K, x1 = 0.7382	961.327	1398.7	0.927
293.15 K, x1 = 0.8645	977.029	1412.5	0.999
293.15 K, x1 = 0.927	984.734	1418.9	1.039
293.15 K, x1 = 1	993.653	1428.5	1.084
298.15 K, x1 = 0.1152	877.272	1316.5	0.594
298.15 K, x1 = 0.2132	889.988	1325.8	0.634
298.15 K, x1 = 0.3098	902.448	1335	0.67
298.15 K, x1 = 0.4182	–	1345.3	0.721
298.15 K, x1 = 0.5267	930.133	1356.5	0.769
298.15 K, x1 = 0.6209	942.044	1366.3	0.809
298.15 K, x1 = 0.7382	956.777	1378.8	0.871
298.15 K, x1 = 0.8645	972.508	1392.7	0.94
298.15 K, x1 = 0.927	980.221	1399.6	0.977
298.15 K, x1 = 1	989.15	1408	1.017
303.15 K, x1 = 0.1152	872.541	1295.1	0.557
303.15 K, x1 = 0.2132	885.247	1304.8	0.592
303.15 K, x1 = 0.3098	897.698	1314.4	0.623
303.15 K, x1 = 0.4182	911.571	1325.3	0.667
303.15 K, x1 = 0.5267	925.369	1336.5	0.709
303.15 K, x1 = 0.6209	937.281	1346.4	0.745
303.15 K, x1 = 0.7382	952.012	1358.8	0.802
303.15 K, x1 = 0.8645	967.753	1372.5	0.862
303.15 K, x1 = 0.927	975.465	1379.4	0.895
303.15 K, x1 = 1	984.374	1387.7	0.931

COc1ccccc1 [anisole] + c1ccccc1
Settings	mass density [kg/m3]	speed of sound [m/s]	viscosity [mPa·s]
288.15 K, x1 = 0.097	897.546	1356.8	0.747
288.15 K, x1 = 0.175	907.884	1364.5	0.777
288.15 K, x1 = 0.274	920.511	1374.4	0.817
288.15 K, x1 = 0.368	932.009	1383.8	0.856
288.15 K, x1 = 0.4971	947.045	1395.2	0.915
288.15 K, x1 = 0.623	960.925	1406.8	0.976
288.15 K, x1 = 0.72	971.118	1418.4	1.027
288.15 K, x1 = 0.8003	979.257	1425.2	1.072
288.15 K, x1 = 0.8895	988.004	1437.5	1.126
288.15 K, x1 = 1	998.441	1449.1	1.188
293.15 K, x1 = 0.097	890.999	1333	0.683
293.15 K, x1 = 0.175	901.497	1340.7	0.71
293.15 K, x1 = 0.274	914.322	1350.8	0.746
293.15 K, x1 = 0.368	926.005	1360.5	0.781
293.15 K, x1 = 0.4971	941.295	1373.9	0.833
293.15 K, x1 = 0.623	955.425	1387.2	0.889
293.15 K, x1 = 0.72	965.807	1397.5	0.936
293.15 K, x1 = 0.8003	974.102	1406.1	0.978
293.15 K, x1 = 0.8895	983.017	1415.9	1.027
293.15 K, x1 = 1	993.649	1428.5	1.084
298.15 K, x1 = 0.097	887.083	1309.3	0.638
298.15 K, x1 = 0.175	897.532	1317	0.664
298.15 K, x1 = 0.274	910.286	1327.1	0.697
298.15 K, x1 = 0.368	921.904	1337	0.73
298.15 K, x1 = 0.4971	937.104	1350.8	0.779
298.15 K, x1 = 0.623	951.156	1364.6	0.831
298.15 K, x1 = 0.72	961.483	1375.5	0.877
298.15 K, x1 = 0.8003	969.734	1384.6	0.918
298.15 K, x1 = 0.8895	978.597	1394.8	0.963
298.15 K, x1 = 1	989.15	1408	1.017
303.15 K, x1 = 0.097	881.745	1286.9	0.601
303.15 K, x1 = 0.175	892.244	1295.4	0.623
303.15 K, x1 = 0.274	905.059	1306.3	0.651
303.15 K, x1 = 0.368	916.731	1316.6	0.679
303.15 K, x1 = 0.4971	932.013	1330.9	0.72
303.15 K, x1 = 0.623	946.146	1345	0.767
303.15 K, x1 = 0.72	956.542	1355.8	0.808
303.15 K, x1 = 0.8003	964.845	1364.9	0.844
303.15 K, x1 = 0.8895	973.764	1375.1	0.883
303.15 K, x1 = 1	984.374	1387.7	0.931
